This is an account of results in patent US20240174621A1, “METHYLQUINAZOLINONE DERIVATIVES” (Hoffmann-La Roche Inc., priority 2019, published 2024).

Where two headings read alike, the source gives them in different places. A value given as a limit tells only on which side of the number the result lay.

In data set [1] the test system is P-ERK in A375 cells expressing V600E mutated BRAF. The data set can be described thus: cells. It is filed as cell-based. The following applies: Homo sapiens, A-375, 1 h, read-out: pERK IC50 (nM) A375. From the text: DMEM no-phenol red medium supplemented with L-glutamine was purchased from (Thermo Fisher Scientific). Fetal bovine serum (FBS) was purchased from VWR. Advanced ERK phospho-T202/Y204 kit—10,000 tests was purchased from Cisbio cat #64AERPEH. A375 and HCT116 cells were originally obtained from ATCC and banked by the Roche repository.
(§1) A375 is a cellular cancer model expressing V600E mutated BRAF and HCT116 a cellular cancer model expressing WT BRAF. […] ERK 1,2 phosphorylation (terminal member of the phosphorylation cascade of the MAPK pathway) is hereafter reported as main readout for the activation status of the MAPK pathway. Prior to the assay, A375 and HCT116 cell lines are maintained in DMEM no-phenol red medium supplemented with 10% fetal bovine serum (FBS). […] Briefly, 8000 cells/well in 12 μl media/well are plated in the 384-well plate and left overnight in the incubator (at 37° C. with 5% CO2-humidified atmosphere), the following day the plate is treated in duplicate with test compounds, dabrafenib and PLX8394 (the latter two as controls) at the following final drug concentrations: 10 μM-3 μM-1 μM all wells are subjected to DMSO normalization and drug incubation occurs for 1 hour. Then, 4 μl of a 4× lysis buffer supplied with the kit are added to the wells, the plate is then centrifuged for 30 second (300 rcf) and incubated on a plate shaker for 1 h at RT.
At the end of the incubation 4 μL/well of advanced P-ERK antibody solution (prepared according to manufacturer's instruction) followed by 4 μL/well of criptate P-ERK antibody solution (prepared according to manufacturer's instruction) (Cisbio cat #64AERPEH) are added to test wells. […]
(§2) The obtained fluorescence values are processed according to the formula Ratio=[…]*10000 then the average of the ratio on the blank is subtracted to all values.
Mean of the normalized points are fitted with sigmoidal curve and IC50 determined.

The subject of data set [2] is P-ERK in HCT116 cells expressing WT BRAF. It is filed as cell-based.
Excerpt: DMEM no-phenol red medium supplemented with L-glutamine was purchased from (Thermo Fisher Scientific). Fetal bovine serum (FBS) was purchased from VWR. Advanced ERK phospho-T202/Y204 kit—10,000 tests was purchased from Cisbio cat #64AERPEH. A375 and HCT116 cells were originally obtained from ATCC and banked by the Roche repository. 384-well microplates were purchased from Greiner Bio-One, 384-well, (With Lid, HiBase, Low volume cat 784-080).
as §1
At the end of the incubation 4 μL/well of advanced P-ERK antibody solution (prepared according to manufacturer's instruction) followed by 4 μL/well of criptate P-ERK antibody solution (prepared according to manufacturer's instruction) (Cisbio cat #64AERPEH) are added to test wells.
In order to allow proper data normalization control wells non drug treated reported in the following table are always included in each plate (according to manufacturer's instruction):
The plate is then centrifuged at 300 rcf for 30 second, sealed to prevent evaporation and incubated overnight in the dark at room temperature.
The plate is then analyzed and fluorescence emission value collected through a Pherastast FSX (BMG Labtech) apparatus at […].
as §2
Data are normalized in the case of HCT116 cells (BRAF activation,) considering the average of the ratio (blank subtracted) derived by DMSO only treated cells as 0% and by considering the average of the ratio (blank subtracted) derived by dabrafenib treated cells at the concentration which provides the highest signal as 100%. Individual points are fitted with either sigmoidal or bell shape curves, and the percentage of activation compared to maximum dabrafenib-mediated activation is determined. The EC50 is the concentration at which activation equal to 50% of the maximum achieved by dabrafenib is obtained.
The Percentage of Maximum paradox inducing effect from dabrafenib is determined by evaluating the percentage at which the test compound induce its maximum P-ERK signal as percentage of the highest signal produced by dabrafenib within the dose range tested.

The conditions of data set [3]: literature; cited from earlier work.
Data set [4] can be described thus: CSF Kp,uu measurement for brain penetration, minipig. Format: in vivo. The following applies: Multiple oral dosing @ 300 mg/kg/day (2-week DRF). As to the method:
(§3) The CSF Kp,uu is the ratio of the concentration in cerebrospinal fluid (CSF): unbound plasma exposure and Kp,uu values≥1 indicate good brain penetration. For compound Example 1, single oral dose studies in mouse and rat, sequential plasma and CSF concentrations (up to 24 h post dose) were measured by LC-MS/MS to calculate the CSF Kp,uu. For multiple oral dose studies in rat and minipig the plasma and CSF concentrations approximating Tmax (3 h post last dose) were measured by LC-MS/MS and used to calculate the CSF Kp,uu.

Data set [5] is described as follows: BCS (biopharmaceutics classification system). It is filed as physicochemical.
Data set [6] deals with A375 BRAF V600E cancer cells constituvely expressing luciferase. Put plainly: Intracranial implanted A375-Luc. Format: in vivo. The conditions noted are these: daily oral 1, 5 and 20 mg/kg for 2 weeks from day 7; immunocompromised mice. The protocol:
A375 BRAF V600E cancer cells constituvely expressing luciferase were injected intracranially in immunocompromised mice. Treatment with compound Example 1 was initiated at day 7 from the intracranial injection and continued for 2 weeks. The different groups were subject to daily oral administration of 1 mg/kg, 5 mg/kg and 20 mg/kg of Example 1 respectively.

The nature of a further data set: Plasma protein binding. Format: in vitro ADME. The conditions noted are these: mouse, rat, minipig, monkey, human.
A short description of data set [7]: CSF Kp,uu measurement for brain penetration, rat. Format: in vivo. As to the method:
as §3

Data set [8] is described as follows: CSF Kp,uu measurement for brain penetration, mouse. It is filed as in vivo. The conditions noted are these: Single oral dose 10 mg/kg. As to the method: as §3
The test system of another data set is P-gp. Put plainly: P-gp apical efflux ratio, LLC-PK1 cell line transfected with MDR1. It is filed as in vitro ADME.
Setting [9] is: read-out: p-ERK EC50 (nM) conc. (nM) at which the compound induces P-ERK activation of 50% of that induced by dabrafenib (Positive control paradox inducer) HCT-116; HCT-116 cells; not applicable if activation does not reach 50% of dabrafenib maximum.
Where [10] appears, read: HCT-116 cells; maximum P-ERK signal as percentage of highest dabrafenib signal.

For orientation: IC50 means the concentration that gives 50% inhibition. As usually defined, the EC50 is the concentration at which the effect is half-maximal. In the case of `CCCS(=O)(=O)Nc1ccc(F)c(Oc2ccc3ncn(C)c(=O)c3c2)c1C#N` [AR-25], the IC50 in data set [1] amounted to 1.1 nM. In addition, in data set [2] (setting [9]), the concentration for a half-maximal effect (EC50) was 9.6 nM.

With `CN(C)S(=O)(=O)Nc1ccc(Cl)c(Oc2ccc3ncn(C)c(=O)c3c2)c1C#N` [AR-30], in [1], the half-maximal inhibitory concentration (IC50) was 406 nM. In addition, the “Percentage of Maximum paradox inducing effect from dabrafenib” value (from here on “Percentage”) in data set [2] (setting [10]) is 59%. For the same compound, the 50% effective concentration (EC50) in data set [2] (setting [9]) is greater than 1000 nM.

For the compound `Cn1cnc2ccc(Oc3c(Cl)ccc(NS(=O)(=O)N4CCCC4)c3C#N)cc2c1=O` [AR-31], in [1], the IC50 came out at 311 nM. Moreover, in data set [2] (setting [10]), the “Percentage” value is listed as 51.2%. Further, in data set [2] (HCT-116 cells; not applicable if activation does not reach 50% of dabrafenib maximum; read-out: p-ERK EC50 (nM) conc. (nM) at which the compound induces P-ERK activation of 50% of that induced by dabrafenib (Positive control paradox inducer) HCT-116), the half-maximal effective concentration (EC50) is greater than 1000 nM.

`CC(C)(C)c1nc(-c2cccc(NS(=O)(=O)c3c(F)cccc3F)c2F)c(-c2ccnc(N)n2)s1` [Dabrafenib]: the Brain permeability result in [3] is “very poor brain permerability”.

As to `COC(=O)N[C@@H](C)CNc1nccc(-c2cn(C(C)C)nc2-c2cc(Cl)cc(NS(C)(=O)=O)c2F)n1` [Encorafenib], the Brain permeability result in data set [3] is “very poor brain permerability”.

The fraction unbound is free concentration divided by total concentration. One may read the efflux ratio as a quotient of directional permeabilities that is used to spot active efflux. With `Cn1cnc2ccc(Oc3c(F)ccc(NS(=O)(=O)N4CC[C@@H](F)C4)c3C#N)cc2c1=O` [Example 1, (3R)-N-[2-cyano-4-fluoro-3-(3-methyl-4-oxo-quinazolin-6-yl)oxy-phenyl]-3-fluoro-pyrrolidine-1-sulfonamide], the “Minipig CSF Kp,uu, Class” value in [4] is listed as “High”. Moreover, the Kp uu at 3 h was no less than 1 in data set [4] (minipig, CSF / unbound plasma, 3 h post last dose) and no less than 1 in data set [7] (rat, CSF / unbound plasma, Multiple oral dosing @ 300 mg/kg/day (2-week DRF), 3 h post last dose). In addition, the “BCS (biopharmaceutics classific. system) Class” value in data set [5] is listed as 2. The “Antitumor activity, intracranial A375-Luc” value in [6] is “dose dependent antitumor activity”. In “Plasma protein binding”, the “Plasma protein binding, Class” value is recorded as “Very high”. In “Plasma protein binding” (plasma), this compound displayed a fraction unbound of no more than 0.01. In addition, the “Rat CSF Kp,uu, Class” value in [7] (Multiple oral dosing @ 300 mg/kg/day (2-week DRF)) and in [7] (Single oral dose 20 mg/kg) was “High” each time. Moreover, the Kp uu in data set [7] (rat, CSF / unbound plasma, Single oral dose 20 mg/kg) is no less than 1; in [8] (mouse, CSF / unbound plasma) it was no less than 1. The “Temporal relationship of plasma and CSF (distribution into CSF)” value in data set [7] (single dose rat PK study, up to 24 h post dose) was “(PK) study and indicated fast and extensive distribution into CSF”. The “Mouse CSF Kp,uu, Class” value in [8] was “High”. Moreover, the “P-gp Apical Efflux ratio, Class” value with P-gp (LLC-PK1 transfected with MDR1) is “Low”. Also, the efflux ratio in the data set on P-gp (human, LLC-PK1 transfected with MDR1, presence/absence of P-gp inhibitor) is 1.5.

As for `Cn1cnc2ccc(Oc3c(F)ccc(NS(=O)(=O)N4CC[C@H](F)C4)c3C#N)cc2c1=O` [Example 2, (3S)-N-[2-cyano-4-fluoro-3-(3-methyl-4-oxo-quinazolin-6-yl)oxy-phenyl]-3-fluoro-pyrrolidine-1-sulfonamide], the “Percentage” value in [2] (setting [10]) amounted to 46.2%.

Regarding `CCCS(=O)(=O)Nc1ccc(F)c(C(=O)c2c[nH]c3ncc(-c4ccc(Cl)cc4)cc23)c1F` [Vemurafenib], in data set [3], the Brain permeability result is “very poor brain permerability”.
